Source: ChEMBL document CHEMBL1128111, “Synthesis and biological activity of a series of 4-aryl substituted benz[b]azepines: Antagonists at the strychnine-insensitive glycine site” (Bioorg Med Chem Lett, 1995)
Calls of active or inactive are those of the source. The calls are words filed in the database; no cut-off is given here.

What follows are molecules tested against T1, Glutamate NMDA receptor (Rattus norvegicus) (UniProt P35439+Q00959+Q00960+Q00961+Q62645+Q8VHN2+Q9R1M7) (assay: The compound was tested in vivo for its effect on the NMDA receptor complex following administration by iv infusion in red nucleus assay).
Format: organism-based
Set-up: unit not given here
O=c1[nH]c2cc(Cl)ccc2c(O)c(-c2cccs2)c1=O gave an Activity of 5.6. COc1cccnc1-c1c(O)c(=O)[nH]c2cc(Cl)ccc2c1=O showed an Activity of 2.8. Molecule O=c1[nH]c2cc(Cl)ccc2c(O)c(-c2ccco2)c1=O has an Activity of 5. In the case of O=c1[nH]c2cc(Cl)ccc2c(O)c(-c2ccccn2)c1=O, the Activity is reported as 1.7. Molecule O=c1[nH]c2cc(Cl)ccc2c(O)c(-c2ccccc2)c1=O has an Activity of 9.4. Work on COc1ccc(-c2c(O)c(=O)[nH]c3cc(Cl)ccc3c2=O)cc1 yielded an Activity of 9.9.

Each molecule was assayed against T1, Glutamate NMDA receptor (Rattus norvegicus) (assay: The compound was tested in vivo for its effect on the NMDA receptor complex following administration by iv infusion in red nucleus assay; Inactive).
Format: organism-based
With O=c1[nH]c2cc(Cl)ccc2c(O)c(-c2cccnc2)c1=O the Activity was “inactive”.
